For series [1], the target named is T1, human acetyl-CoA carboxylase 2 (ACC2) (Homo sapiens, UniProt O00763).
T1 construct: The cDNA encoding amino acids 144 to 2458 of human acetyl-CoA carboxylase 2; made in house; host or cells: Sf9 insect cells (baculovirus, pFastBac1)
The series is described as follows: Acetyl-CoA carboxylase enzyme assay (malonyl-CoA formation by LC/MS/MS). The class given is biochemical. The settings on record: recombinant human ACC2 (aa 144-2458); read-out: IC50 ACC2. Summed up:
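Malonyl-CoA formation was read by LC/MS/MS MRM against a [13C3]-malonyl-CoA internal standard, after acetic acid quench. The enzyme was baculovirus/Sf9-expressed human ACC2 residues 144–2458, given 15 minutes room-temperature compound preincubation in HEPES pH 7.5 buffer with MgCl2, citrate and DTT. Substrate solution held 50 μM acetyl-CoA, 120 μM ATP and 2 mM KHCO3.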

The next series in a line: in vitro. Format: cell-based. Conditions: human. On the procedure: (§1) The effect of compounds on HCV infection was determined in vitro using cell cultured (HCVcc) genotype 2a (JFH-1 strain) virus. A renilla luciferase reporter gene was inserted in the viral genome, the expression of which was under the control of HCV 5′UTR (JFH-1^rLuc). Thus, the inhibition of HCV infection or replication can be indirectly measured by the reduction of luciferase activity in the cells. A specifically adapted hepatoma cell line, Huh 7.5, which allowed higher infectivity of HCV in vitro, was cultured in Dulbecco's modified Eagle's medium (DMEM) supplemented with 2 mM L-glutamine, 0.1 mM non-essential amino acids and 10% heat-inactivated fetal bovine serum. The cells were infected with JFH-1^rLuc virus at an MOI=0.01 and were treated at the same time with serially diluted compounds. After 72 hours, luciferase activities in compound-treated cells were measured using the Renilla Luciferase Assay System (Promega) and were compared to those in untreated control cells. Concentration-dependent inhibition curves were generated, from which EC50 values, the concentrations of compounds at which luciferase activities were reduced by 50% relative to untreated control, were calculated. In parallel, cytotoxicity of compounds was determine by measuring the viability of compound-treated cells using CellTiter 96® AQueous One Solution Cell Proliferation Assay (Promega). CC50 represented the concentration of the compound at which cell viability was reduced by 50% compared to untreated control.

The test system of series [2] is HCVcc genotype 2a (JFH-1 strain) virus. As to the kind of experiment: HCV assay: JFH-1 rLuc infection of Huh 7.5 cells, renilla luciferase readout. Format: cell-based. Conditions: Hepatitis C virus, Huh7.5; JFH-1 rLuc virus, MOI=0.01, Huh 7.5 cells, 72 hours, luciferase activity reduced by 50%. The method, then: as §1

T1 sequence (O00763 144-2458): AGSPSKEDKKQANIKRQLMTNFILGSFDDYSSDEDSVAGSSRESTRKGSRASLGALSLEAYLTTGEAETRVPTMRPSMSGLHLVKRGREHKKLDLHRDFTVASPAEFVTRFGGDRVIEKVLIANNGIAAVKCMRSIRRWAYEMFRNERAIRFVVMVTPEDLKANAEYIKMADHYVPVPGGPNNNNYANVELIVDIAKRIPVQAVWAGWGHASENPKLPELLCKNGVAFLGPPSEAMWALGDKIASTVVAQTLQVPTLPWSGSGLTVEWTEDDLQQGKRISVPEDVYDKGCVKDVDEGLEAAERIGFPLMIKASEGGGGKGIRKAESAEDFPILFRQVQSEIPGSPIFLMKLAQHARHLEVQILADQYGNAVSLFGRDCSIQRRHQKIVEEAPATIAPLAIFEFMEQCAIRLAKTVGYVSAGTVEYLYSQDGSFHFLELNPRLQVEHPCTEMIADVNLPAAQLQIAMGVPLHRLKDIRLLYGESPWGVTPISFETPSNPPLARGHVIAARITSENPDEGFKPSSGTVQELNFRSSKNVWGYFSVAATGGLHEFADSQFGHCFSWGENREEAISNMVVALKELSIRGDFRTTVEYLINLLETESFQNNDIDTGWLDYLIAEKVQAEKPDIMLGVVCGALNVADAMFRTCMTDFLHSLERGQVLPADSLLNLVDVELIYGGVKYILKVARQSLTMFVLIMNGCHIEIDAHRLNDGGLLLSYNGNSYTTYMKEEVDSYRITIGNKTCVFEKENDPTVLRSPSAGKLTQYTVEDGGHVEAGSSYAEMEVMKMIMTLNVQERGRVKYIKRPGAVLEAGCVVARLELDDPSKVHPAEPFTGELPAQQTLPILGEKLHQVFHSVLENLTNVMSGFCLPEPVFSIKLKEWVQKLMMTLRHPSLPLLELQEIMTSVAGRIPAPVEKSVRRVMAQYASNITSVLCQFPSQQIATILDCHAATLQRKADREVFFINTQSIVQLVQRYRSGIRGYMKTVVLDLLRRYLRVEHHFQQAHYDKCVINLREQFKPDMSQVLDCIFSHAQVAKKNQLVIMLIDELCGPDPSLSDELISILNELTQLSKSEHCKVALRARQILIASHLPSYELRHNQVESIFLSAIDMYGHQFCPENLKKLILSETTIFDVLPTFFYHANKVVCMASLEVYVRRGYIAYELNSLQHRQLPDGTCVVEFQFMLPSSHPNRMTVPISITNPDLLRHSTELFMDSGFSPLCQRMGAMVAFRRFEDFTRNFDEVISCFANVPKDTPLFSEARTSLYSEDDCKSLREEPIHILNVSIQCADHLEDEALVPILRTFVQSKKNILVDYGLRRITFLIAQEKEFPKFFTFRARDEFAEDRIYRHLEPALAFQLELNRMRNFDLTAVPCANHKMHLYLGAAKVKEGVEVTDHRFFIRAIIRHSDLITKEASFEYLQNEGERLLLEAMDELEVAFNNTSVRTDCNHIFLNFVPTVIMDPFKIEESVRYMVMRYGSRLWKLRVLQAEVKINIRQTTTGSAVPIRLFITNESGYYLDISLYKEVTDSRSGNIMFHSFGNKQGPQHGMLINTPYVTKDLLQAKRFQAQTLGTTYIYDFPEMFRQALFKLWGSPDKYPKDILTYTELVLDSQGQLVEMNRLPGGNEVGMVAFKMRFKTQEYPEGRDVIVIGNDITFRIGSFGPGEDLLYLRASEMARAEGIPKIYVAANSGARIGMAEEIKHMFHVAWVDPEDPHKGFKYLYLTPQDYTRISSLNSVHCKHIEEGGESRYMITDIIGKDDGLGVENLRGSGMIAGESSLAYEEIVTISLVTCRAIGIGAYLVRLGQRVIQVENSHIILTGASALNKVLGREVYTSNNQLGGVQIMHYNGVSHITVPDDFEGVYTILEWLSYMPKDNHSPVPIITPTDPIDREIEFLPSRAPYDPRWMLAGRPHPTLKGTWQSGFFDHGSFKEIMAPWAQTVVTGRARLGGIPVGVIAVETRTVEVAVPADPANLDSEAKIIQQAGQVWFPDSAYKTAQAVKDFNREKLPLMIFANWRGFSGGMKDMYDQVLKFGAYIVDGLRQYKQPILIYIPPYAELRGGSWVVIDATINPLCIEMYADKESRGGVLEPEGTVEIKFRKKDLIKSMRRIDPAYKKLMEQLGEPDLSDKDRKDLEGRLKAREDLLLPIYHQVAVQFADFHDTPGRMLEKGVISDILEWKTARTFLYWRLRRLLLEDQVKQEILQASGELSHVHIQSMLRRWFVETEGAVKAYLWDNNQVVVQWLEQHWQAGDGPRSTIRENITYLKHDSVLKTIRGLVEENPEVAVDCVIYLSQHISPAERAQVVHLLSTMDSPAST

Usually IC50 stands for the concentration that inhibits the measured activity by half. The term CC50 denotes the concentration giving 50% cytotoxicity. Low readings indicate harm at low concentration, high ones better tolerance by the cells. As a reminder, the EC50 is the concentration needed to bring the measured effect to its halfway point. For `COCCc1ccc(-c2[nH]c3cc(S(=O)(=O)N[C@H]4CC[C@H](C(=O)N5CCOC[C@@H]5C)CC4)ccc3c2Cl)cc1` [Example 31, 3-chloro-2-(4-(2-methoxyethyl)phenyl)-N-((1S,4r)-4-((S)-3-methylmorpholine-4-carbonyl)cyclohexyl)-1H-indole-6-sulfonamide], the IC50 in series [1] is under 10 nM. For the same molecule, in the series “in vitro”, the CC50 at 72 h is 24 µM. In series [2], this molecule had an EC50 of 140 nM.
The corresponding values for `Cn1c(-c2ccc(CCC(=O)O)cc2)c(Cl)c2ccc(S(=O)(=O)N[C@H]3CC[C@H](C(=O)N4CCOC[C@@H]4C4CC4)CC3)cc21` [Example 28, 3-(4-(3-chloro-6-(N-((1S,4r)-4-((S)-3-cyclopropylmorpholine-4-carbonyl)cyclohexyl)sulfamoyl)-1-methyl-1H-indol-2-yl)phenyl)propanoic acid] are under 10 nM, over 33 µM and 510 nM.
The like results for `Cn1c(-c2ccccc2)cc2ccc(S(=O)(=O)N[C@H]3CC[C@H](C(=O)N4CC5(CN(C(=O)OC(C)(C)C)C5)C4)CC3)cc21` [Example 483, tert-butyl 6-((1r,4r)-4-(1-methyl-2-phenyl-1H-indole-6-sulfonamido)cyclohexanecarbonyl)-2,6-diazaspiro[3.3]heptane-2-carboxylate] were, in that order, 75 nM, 16 µM and 40 nM.
The corresponding values for `Cn1c(C2CC2)cc2ccc(S(=O)(=O)N[C@H]3CC[C@H](C(=O)NC(C4CC4)C4CC4)CC3)cc21` [Example 459, (1r,4r)-4-(2-cyclopropyl-1-methyl-1H-indole-6-sulfonamido)-N-(dicyclopropylmethyl)cyclohexanecarboxamide] are 630 nM, 26 µM and 210 nM.
Turning to `C[C@@H](NC(=O)[C@H]1CC[C@H](NS(=O)(=O)c2cnc3c(c2)N(C(=O)OCCOCc2ccccc2)CCN3)CC1)c1ccc(F)cc1` [Example 208, 2-(benzyloxy)ethyl 7-(N-((1R,4r)-4-((R)-1-(4-fluorophenyl)ethylcarbamoyl)cyclohexyl)sulfamoyl)-3,4-dihydropyrido[3,2-b]pyrazine-1(2H)-carboxylate], the IC50 in series [1] was found to be 595 nM. In addition, in the series “in vitro”, the half-maximal cytotoxic concentration (CC50) at 72 h is over 16.7 µM. This molecule registered a 50% effective concentration (EC50) in series [2] of 4740 nM.
The corresponding values for `C[C@@H]1CN(C(=O)[C@H]2CC[C@H](NS(=O)(=O)c3ccc4c(Cl)c(-c5ccccc5)[nH]c4c3)CC2)C[C@H](C)O1` [Example 477, 3-chloro-N-((1R,4r)-4-((2S,6R)-2,6-dimethylmorpholine-4-carbonyl)cyclohexyl)-2-phenyl-1H-indole-6-sulfonamide] are under 10 nM, 12 µM and 40 nM.
For `CC(C)[C@H]1COCCN1C(=O)[C@H]1CC[C@H](NS(=O)(=O)c2ccc3cc(-c4ccc(CCC(=O)O)cc4)n(C)c3c2)CC1` [Example 29, 3-(4-(6-(N-((1S,4r)-4-((S)-3-isopropylmorpholine-4-carbonyl)cyclohexyl)sulfamoyl)-1-methyl-1H-indol-2-yl)phenyl)propanoic acid], in series [1], the IC50 is under 10 nM. In “in vitro”, this molecule returned a CC50 at 72 h of over 33 µM. In series [2], this molecule gave an EC50 of 2420 nM.
The like results for `CCOc1ccc2cc(S(=O)(=O)N[C@H]3CC[C@H](C(=O)N[C@H](COC(=O)[C@@H](NC)C(C)C)c4ccccc4)CC3)ccc2n1` [Example 272, (S)-((S)-2-((1r,4S)-4-(2-ethoxyquinoline-6-sulfonamido)cyclohexanecarboxamido)-2-phenylethyl) 3-methyl-2-(methylamino)butanoate] were, in that order, 175 nM, over 16.7 µM and 14100 nM.
`Cn1c(C2CC2)cc2ccc(S(=O)(=O)N[C@H]3CC[C@H](C(=O)N4CCOC[C@@H]4C4CC4)CC3)cc21` [Example 458, 2-cyclopropyl-N-((1S,4r)-4-((S)-3-cyclopropylmorpholine-4-carbonyl)cyclohexyl)-1-methyl-1H-indole-6-sulfonamide]: the IC50 in series [1] was 35 nM. The same molecule came in with a CC50 at 72 h in “in vitro” of over 33 µM. For the same molecule, the EC50 in series [2] turned out to be 240 nM.
The corresponding values for `COCCc1ccc(-c2cc3ccc(S(=O)(=O)N[C@H]4CC[C@H](C(=O)N5CCOC[C@@H]5C)CC4)cc3[nH]2)cc1` [Example 30, 2-(4-(2-methoxyethyl)phenyl)-N-((1S,4r)-4-((S)-3-methylmorpholine-4-carbonyl)cyclohexyl)-1H-indole-6-sulfonamide] are 10 nM, over 33 µM and 710 nM.
The corresponding values for `Cn1c(-c2ccccc2)cc2ccc(S(=O)(=O)N[C@H]3CC[C@H](C(=O)N4CCN(c5ncccn5)CC4)CC3)cc21` [Example 431, 1-methyl-2-phenyl-N-((1r,4r)-4-(4-(pyrimidin-2-yl)piperazine-1-carbonyl)cyclohexyl)-1H-indole-6-sulfonamide] are 130 nM, over 33 µM and 2230 nM.
Consider `O=C([C@H]1CC[C@H](NS(=O)(=O)c2ccc3c(Cl)c(-c4ccccc4)[nH]c3c2)CC1)N1CCOC[C@@H]1C1CC1` [Example 474, 3-chloro-N-((1S,4r)-4-((S)-3-cyclopropylmorpholine-4-carbonyl)cyclohexyl)-2-phenyl-1H-indole-6-sulfonamide], for which the IC50 in series [1] is under 10 nM. Also, the CC50 at 72 h in the series “in vitro” is over 67 µM. The same molecule displayed an EC50 in series [2] of 29 nM.
The like results for `COC(=O)CCc1ccc(-c2cc3ccc(S(=O)(=O)N[C@H]4CC[C@H](C(=O)N5CCOC[C@@H]5C5CC5)CC4)cc3n2C)cc1` [Example 473, methyl 3-(4-(6-(N-((1S,4r)-4-((S)-3-cyclopropylmorpholine-4-carbonyl)cyclohexyl)sulfamoyl)-1-methyl-1H-indol-2-yl)phenyl)propanoate] were, in that order, under 10 nM, over 33 µM and 200 nM.

For the origin of these results see patent US8697739B2, “Bicyclic acetyl-CoA carboxylase inhibitors and uses thereof” (Novartis AG, priority 2010, dated 2014).
